Assays:
[1] = In vitro human intestinal S9 hydrolysis assay (formation of compound 1-1); details: human intestinal S9, 1 uM, 37° C., up to 60 minutes
[2] = biological target: VMAT2 (human platelet homogenate) (Homo sapiens (Human), UniProt Q05940); assay: Human VMAT2 Ki, slightly modified competition binding procedure (Table 11); details: 10 nM 3H-dihydrotetrabenazine;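 note: competition binding with 90 min incubation at 25 °C, after which filter-retained radioligand was measured by scintillation counting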
Sequence of VMAT2 (human platelet homogenate) (Q05940 whole entry): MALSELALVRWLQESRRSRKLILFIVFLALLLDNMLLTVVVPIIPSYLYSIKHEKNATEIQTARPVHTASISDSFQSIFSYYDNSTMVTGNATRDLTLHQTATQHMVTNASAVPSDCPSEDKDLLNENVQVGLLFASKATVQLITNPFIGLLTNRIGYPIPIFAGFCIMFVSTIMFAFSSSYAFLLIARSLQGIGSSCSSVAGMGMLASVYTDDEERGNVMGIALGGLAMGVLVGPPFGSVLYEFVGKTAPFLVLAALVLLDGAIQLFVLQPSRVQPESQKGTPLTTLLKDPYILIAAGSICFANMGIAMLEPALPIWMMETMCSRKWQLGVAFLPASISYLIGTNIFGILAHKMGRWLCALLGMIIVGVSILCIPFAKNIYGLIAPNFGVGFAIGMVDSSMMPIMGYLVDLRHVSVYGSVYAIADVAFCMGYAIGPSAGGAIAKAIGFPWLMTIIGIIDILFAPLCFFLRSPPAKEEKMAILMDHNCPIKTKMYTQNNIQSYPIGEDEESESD
Procedure: Following incubation at 25° C. for 90 minutes, bound radioligand was collected by rapid filtration onto GF/B glass fiber filters using a Unifilter-96 Harvester (PerkinElmer). Filter plates were pre-treated with 0.1% polyethylenimine and allowed to dry overnight, and following harvesting the filter plates were washed with 800 d VMAT2 binding buffer. Bound radioligand was quantified by scintillation counting using a Topcount NXT (PerkinElmer).

S9 Assay (ability to form compound 1-1) [1] | Ki [2] | SMILES
+ | > 0.5 µM | COc1cc2c(cc1OC)[C@H]1C[C@@H](COC(=O)N3CCOC(CC(=O)O)C3)[C@H](CC(C)C)CN1CC2 (stereo partly drawn) [Compound 5-6, 2-[4-({[(2R,3S,11bR)-9,10-dimethoxy-3-(2-methylpropyl)-1H,2H,3H,4H,6H,7H,11bH-pyrido[2,1-a]isoquinolin-2-yl]methoxy}carbonyl)morpholin-2-yl]acetic acid]
+ | > 0.5 µM | COc1cc2c(cc1OC)[C@H]1C[C@@H](COC(=O)N[C@H]3[C@@H](C(=O)O)[C@H]4C=C[C@@H]3C4)[C@H](CC(C)C)CN1CC2 [Compound 5-9, (1R,2S,3R,4S)-3-[({[(2R,3S,11bR)-9,10-dimethoxy-3-(2-methylpropyl)-1H,2H,3H,4H,6H,7H,11bH-pyrido[2,1-a]isoquinolin-2-yl]methoxy}carbonyl)amino]bicyclo[2.2.1]hept-5-ene-2-carboxylic acid]
++ | 0.01 to 0.5 µM | COc1cc2c(cc1OC)[C@H]1C[C@@H](COC(=O)NCC(O)C(=O)O)[C@H](CC(C)C)CN1CC2 (stereo partly drawn) [Compound 5-11, 3-[({[(2R,3S,11bR)-9,10-dimethoxy-3-(2-methylpropyl)-1H,2H,3H,4H,6H,7H,11bH-pyrido[2,1-a]isoquinolin-2-yl]methoxy}carbonyl)amino]-2-hydroxypropanoic acid]
+ | > 0.5 µM | COc1cc2c(cc1OC)[C@H]1C[C@@H](COC(=O)N3CCCC(C(=O)O)C3)[C@H](CC(C)C)CN1CC2 (stereo partly drawn) [Compound 5-14, 1-({[(2R,3S,11bR)-9,10-dimethoxy-3-(2-methylpropyl)-1H,2H,3H,4H,6H,7H,11bH-pyrido[2,1-a]isoquinolin-2-yl]methoxy}carbonyl)piperidine-3-carboxylic acid]
+ | 0.01 to 0.5 µM | COc1cc2c(cc1OC)[C@H]1C[C@@H](COC(=O)N(C)[C@H](C)C(=O)O)[C@H](CC(C)C)CN1CC2 [Compound 5-17, (2R)-2-[({[(2R,3S,11bR)-9,10-dimethoxy-3-(2-methylpropyl)-1H,2H,3H,4H,6H,7H,11bH-pyrido[2,1-a]isoquinolin-2-yl]methoxy}carbonyl)(methyl)amino]propanoic acid]
+ | 0.01 to 0.5 µM | COc1cc2c(cc1OC)[C@H]1C[C@@H](COC(=O)NC[C@@H](CC(=O)O)CC(C)C)[C@H](CC(C)C)CN1CC2 [Compound 5-19, (3R)-3-{[({[(2R,3S,11bR)-9,10-dimethoxy-3-(2-methylpropyl)-1H,2H,3H,4H,6H,7H,11bH-pyrido[2,1-a]isoquinolin-2-yl]methoxy}carbonyl)amino]methyl}-5-methylhexanoic acid]
++ | 0.01 to 0.5 µM | COc1cc2c(cc1OC)[C@H]1C[C@@H](COC(=O)N[C@@H](CC(C)C)C(=O)O)[C@H](CC(C)C)CN1CC2 [Compound 5-20, (2S)-2-[({[(2R,3S,11bR)-9,10-dimethoxy-3-(2-methylpropyl)-1H,2H,3H,4H,6H,7H,11bH-pyrido[2,1-a]isoquinolin-2-yl]methoxy}carbonyl)amino]-4-methylpentanoic acid]
++ | 0.01 to 0.5 µM | COc1cc2c(cc1OC)[C@H]1C[C@@H](COC(=O)NC3(C(=O)O)CCCCC3)[C@H](CC(C)C)CN1CC2 [Compound 5-23, l-[({[(2R,3S,11bR)-9,10-dimethoxy-3-(2-methylpropyl)-1H,2H,3H,4H,6H,7H,11bH-pyrido[2,1-a]isoquinolin-2-yl]methoxy}carbonyl)amino]cyclohexane-1-carboxylic acid]
+ | > 0.5 µM | COc1cc2c(cc1OC)[C@H]1C[C@@H](COC(=O)N(C)CCCC(=O)O)[C@H](CC(C)C)CN1CC2 [Compound 5-25, 4-[({[(2R,3S,11bR)-9,10-dimethoxy-3-(2-methylpropyl)-1H,2H,3H,4H,6H,7H,11bH-pyrido[2,1-a]isoquinolin-2-yl]methoxy}carbonyl)(methyl)amino]butanoic acid]
+ | > 0.5 µM | COc1cc2c(cc1OC)[C@H]1C[C@@H](COC(=O)NC(C)CC(=O)O)[C@H](CC(C)C)CN1CC2 (stereo partly drawn) [Compound 5-26, 3-[({[(2R,3S,11bR)-9,10-dimethoxy-3-(2-methylpropyl)-1H,2H,3H,4H,6H,7H,11bH-pyrido[2,1-a]isoquinolin-2-yl]methoxy}carbonyl)amino]butanoic acid]
+ | > 0.5 µM | COc1cc2c(cc1OC)[C@H]1C[C@@H](COC(=O)N3CC(C(=O)O)C3)[C@H](CC(C)C)CN1CC2 [Compound 5-27, 1-({[(2R,3S,11bR)-9,10-dimethoxy-3-(2-methylpropyl)-1H,2H,3H,4H,6H,7H,11bH-pyrido[2,1-a]isoquinolin-2-yl]methoxy}carbonyl)azetidine-3-carboxylic acid]
+ | > 0.5 µM | COc1cc2c(cc1OC)[C@H]1C[C@@H](COC(=O)NCC(=O)O)[C@H](CC(C)C)CN1CC2 [Compound 5-30]
++ | < 0.01 µM | COc1cc2c(cc1OC)[C@H]1C[C@@H](COC(=O)N(C)C(C(=O)O)C(C)C)[C@H](CC(C)C)CN1CC2 (stereo partly drawn) [Compound 5-32, 2-[({[(2R,3S,11bR)-9,10-dimethoxy-3-(2-methylpropyl)-1H,2H,3H,4H,6H,7H,11bH-pyrido[2,1-a]isoquinolin-2-yl]methoxy}carbonyl)(methyl)amino]-3-methylbutanoic acid]
+ | 0.01 to 0.5 µM | COc1cc2c(cc1OC)[C@H]1C[C@@H](COC(=O)NCC3(CC(=O)O)CCCCC3)[C@H](CC(C)C)CN1CC2 [Compound 5-34, 2-(1-{[({[(2R,3S,11bR)-9,10-dimethoxy-3-(2-methylpropyl)-1H,2H,3H,4H,6H,7H,11bH-pyrido[2,1-a]isoquinolin-2-yl]methoxy}carbonyl)amino]methyl}cyclohexyl)acetic acid]
+++ | 0.01 to 0.5 µM | COc1cc2c(cc1OC)[C@H]1C[C@@H](COC(=O)NC3(C(=O)O)CCCC3)[C@H](CC(C)C)CN1CC2 [Compound 5-39, 1-[({[(2R,3S,11bR)-9,10-dimethoxy-3-(2-methylpropyl)-1H,2H,3H,4H,6H,7H,11bH-pyrido[2,1-a]isoquinolin-2-yl]methoxy}carbonyl)amino]cyclopentane-1-carboxylic acid]
+ | 0.01 to 0.5 µM | COc1cc2c(cc1OC)[C@H]1C[C@@H](COC(=O)NC3CCCCC3C(=O)O)[C@H](CC(C)C)CN1CC2 (stereo partly drawn) [Compound 5-41, 2-[({[(2R,3S,11bR)-9,10-dimethoxy-3-(2-methylpropyl)-1H,2H,3H,4H,6H,7H,11bH-pyrido[2,1-a]isoquinolin-2-yl]methoxy}carbonyl)amino]cyclohexane-1-carboxylic acid]
++ | 0.01 to 0.5 µM | COc1cc2c(cc1OC)[C@H]1C[C@@H](COC(=O)N(C)CC(=O)O)[C@H](CC(C)C)CN1CC2 [Compound 5-42, 2-[({[(2R,3S,11bR)-9,10-dimethoxy-3-(2-methylpropyl)-1H,2H,3H,4H,6H,7H,11bH-pyrido[2,1-a]isoquinolin-2-yl]methoxy}carbonyl)(methyl)amino]acetic acid]
+ | > 0.5 µM | COc1cc2c(cc1OC)[C@H]1C[C@@H](COC(=O)N3CCC(C(=O)O)(N(C)C)CC3)[C@H](CC(C)C)CN1CC2 [Compound 5-43, 1-({[(2R,3S,11bR)-9,10-dimethoxy-3-(2-methylpropyl)-1H,2H,3H,4H,6H,7H,11bH-pyrido[2,1-a]isoquinolin-2-yl]methoxy}carbonyl)-4-(dimethylamino)piperidine-4-carboxylic acid]
++ | > 0.5 µM | COc1cc2c(cc1OC)[C@H]1C[C@@H](COC(=O)N(C)C(CC(C)C)C(=O)O)[C@H](CC(C)C)CN1CC2 (stereo partly drawn) [Compound 5-46, 2-[({[(2R,3S,11bR)-9,10-dimethoxy-3-(2-methylpropyl)-1H,2H,3H,4H,6H,7H,11bH-pyrido[2,1-a]isoquinolin-2-yl]methoxy}carbonyl)(methyl)amino]-4-methylpentanoic acid]
+ | 0.01 to 0.5 µM | COc1cc2c(cc1OC)[C@H]1C[C@@H](COC(=O)N[C@@H](C)C(=O)O)[C@H](CC(C)C)CN1CC2 [Compound 5-47, (2S)-2-[({[(2R,3S,11bR)-9,10-dimethoxy-3-(2-methylpropyl)-1H,2H,3H,4H,6H,7H,11bH-pyrido[2,1-a]isoquinolin-2-yl]methoxy}carbonyl)amino]propanoic acid]
+ | 0.01 to 0.5 µM | COc1cc2c(cc1OC)[C@H]1C[C@@H](COC(=O)N3CCC(C(=O)O)C3)[C@H](CC(C)C)CN1CC2 (stereo partly drawn) [Compound 5-49, 1-({[(2R,3S,11bR)-9,10-dimethoxy-3-(2-methylpropyl)-1H,2H,3H,4H,6H,7H,11bH-pyrido[2,1-a]isoquinolin-2-yl]methoxy}carbonyl)pyrrolidine-3-carboxylic acid]
+ | > 0.5 µM | COc1cc2c(cc1OC)[C@H]1C[C@@H](COC(=O)N3CCC(C(=O)O)CC3)[C@H](CC(C)C)CN1CC2 [Compound 5-52, 1-({[(2R,3S,11bR)-9,10-dimethoxy-3-(2-methylpropyl)-1H,2H,3H,4H,6H,7H,11bH-pyrido[2,1-a]isoquinolin-2-yl]methoxy}carbonyl)piperidine-4-carboxylic acid]

SMILES | S9 Assay (ability to form compound 1-1) [1] | Ki [2]
COc1cc2c(cc1OC)[C@H]1C[C@@H](COC(=O)NC3C4CCC(C4)C3C(=O)O)[C@H](CC(C)C)CN1CC2 (stereo partly drawn) [Compound 5-40, 3-[({[(2R,3S,11bR)-9,10-dimethoxy-3-(2-methylpropyl)-1H,2H,3H,4H,6H,7H,11bH-pyrido[2,l-a]isoquinolin-2-yl]methoxy}carbonyl)amino]bicyclo[2.2.1]heptane-2-carboxylic acid] | + | 0.01 to 0.5 µM

— patent US11053242B2, “[9,10-dimethoxy-3-(2-methylpropyl)-1H,2H,3H,4H,6H,7H,11BH-pyrido-[2,1-a]isoquinolin-2-yl]methanol and compounds, compositions and methods relating thereto” (Neurocrine Biosciences, Inc., priority 2015, dated 2021)
